According to patent US20260028552A1, “Cationic Surfactants with Improved pH Stability and Their Use” (Locus Solutions IPCo, LLC, priority 2022, published 2026):
“Also recorded” adds a separate entry of the source.

How the values were obtained:
Salmonella enterica (G−) = test: Microbial kill study (log reduction), Salmonella enterica; assay type: cell-based; details: for Log Reduction S. enterica (G−) 100 ppm 0 min / Log Reduction S. enterica (G−) 100 ppm 2 min / Log Reduction S. enterica (G−) 100 ppm 5 min / Activity Reduction S. enterica (G−) 100 ppm 5 min: pH 7, 100 ppm; for Activity Reduction S. enterica (G−) 100 ppm 5 min: day 4 accelerated stability vs day 0
Experimental: (§1) Studies were conducted to determine the antimicrobial capabilities of cationic arginine derivatized surfactants produced according to embodiments of the subject invention.
(§2) The test organisms were a mixture of Gram-negative and Gram-positive organisms, which served to validate the breadth of the spectrum of control and the utility of the technology for common pathogens of public health concern: Pseudomonas aeruginosa (Gram-negative), Staphylococcus aureus (Gram-positive) and Salmonella entericus (Gram-negative).
(§3) Test bacteria were grown at 32° C. for 24-48 hours in tryptic soy broth, then plated at a starting concentration of 10^7. PBS was used for dilution to achieve the desired cell concentration.
(§4) A stock solution of each antimicrobial treatment was created in water, which was then used to create each desired dilution for treatment: 25, 50, 200, 400, 500, 750, 1,000, 1,500, 2,000 and 4,000 ppm, in an appropriate volume of buffer. Buffers included 100 mM of citric acid, ammonium HCL, PBS or sodium bicarbonate.
(§5) The created cell dilution of 10^7 CFU/mL was mixed with either 100 uL to 900 uL of antimicrobial at the appropriate PPM, or 1-9 mL of antimicrobial at the appropriate PPM. The final concentration of the organism was […] once mixed with the antimicrobial.
(§6) The moment the organism was added to the antimicrobial, the timer was started for the desired time period (0, 2, 5, 6 or 10 min). At the end of the timer, the antimicrobial was neutralized, and dilutions were then plated onto TSA plates and incubated for 24-48 hours at 32° C.
(§7) The negative control comprised 0.1 mL from the organism stock plated onto a TSA plate. For the positive control a serial dilution was set up with a starting concentration of 400 PPM quaternary ammonium compound (QAC) and organism. Dilutions were plated at 10^2, 10^3 and 10^4 CFU/mL.
(§8) After 24 to 48 hours of incubation, plates were removed from the incubator and colony numbers were counted.
(§9) The below scale is commonly used in determining a compound's efficacy, where a greater than or equal to 6-fold logarithmic (≥6 log) reduction in less than 10 minutes is needed for disinfection.
(§10) Table 3 summarizes surface tension reduction at 1000 ppm and log reduction of S. aureus and S. enterica at 0 and 10 min. (200 ppm) for four categories of cationic amino alcohol surfactants according to embodiments of the subject invention.
(§11) Tables 4-5 summarize the pH stability over 4 days for a C12 cationic amino alcohol surfactant according to embodiments of the subject invention, LRO (RO), compared with LAE (RE), where LRO was produced through the coupling of a lauroyl chloride substrate and arginine ethyl ester. Log reductions were measured according to the procedures described above in Example 2.

[1] = test system: Staphylococcus aureus (G+); test: Microbial kill study (log reduction), Staphylococcus aureus; assay type: cell-based; details: for Log Reduction S. aureus (G+) 100 ppm 0 min / Log Reduction S. aureus (G+) 100 ppm 2 min / Log Reduction S. aureus (G+) 100 ppm 5 min / Activity Reduction S. aureus (G+) 100 ppm 5 min: pH 7, 100 ppm; for Activity Reduction S. aureus (G+) 100 ppm 5 min: day 4 accelerated stability vs day 0
Experimental: as §1, §2, §3, §4, §5, §6, §7, §8, §9, §10, §11

[2] = base-catalyzed hydrolysis of the ester, lactam formation; listed as LAE; cited from earlier work
[3] = test system: Pseudomonas aeruginosa (G−); test: Microbial kill study (log reduction), Pseudomonas aeruginosa; assay type: cell-based; details: P. aeruginosa
Experimental: as §1, §2, §3, §4
The created cell dilution of 10^7 CFU/mL was mixed with either 100 uL to 900 uL of antimicrobial at the appropriate PPM, or 1-9 mL of antimicrobial at the appropriate PPM. The final concentration of the organism was […] once mixed with the antimicrobial. […]
After 24 to 48 hours of incubation, plates were removed from the incubator and colony numbers were counted. […]

[4] = Surface tension reduction at 1000 ppm; assay type: physicochemical
Experimental: Table 2 summarizes surface tension reduction at 1000 ppm and log reduction of P. aeruginosa at 0 and 10 min. (200 ppm) for two C12 cationic amino alcohol surfactants according to embodiments of the subject invention, LRO (R) and LKO (K), where LRO was produced through the coupling of a lauroyl chloride substrate and arginine ethyl ester and LKO was produced through the coupling of a lauroyl chloride substrate and lysine ethyl ester.
as §10

| Compound | Log Reduction S. enterica (G−) 100 ppm 0 min (Salmonella enterica (G−); Day 0 Stability) | Log Reduction S. enterica (G−) 100 ppm 2 min (Salmonella enterica (G−); Day 0 Stability) | Log Reduction S. enterica (G−) 100 ppm 5 min (Salmonella enterica (G−); Day 0 Stability) | Log Reduction S. enterica (G−) 100 ppm 0 min (Salmonella enterica (G−); Day 4 Accelerated Stability) | Log Reduction S. enterica (G−) 100 ppm 2 min (Salmonella enterica (G−); Day 4 Accelerated Stability) | Log Reduction S. enterica (G−) 100 ppm 5 min (Salmonella enterica (G−); Day 4 Accelerated Stability) | Activity Reduction S. enterica (G−) 100 ppm 5 min (Salmonella enterica (G−)) | Log Reduction S. aureus (G+) 100 ppm 0 min ([1]; Day 0 Stability) | Log Reduction S. aureus (G+) 100 ppm 2 min ([1]; Day 0 Stability) | Log Reduction S. aureus (G+) 100 ppm 5 min ([1]; Day 0 Stability) | Log Reduction S. aureus (G+) 100 ppm 0 min ([1]; Day 4 Accelerated Stability) | Log Reduction S. aureus (G+) 100 ppm 2 min ([1]; Day 4 Accelerated Stability) | Log Reduction S. aureus (G+) 100 ppm 5 min ([1]; Day 4 Accelerated Stability) | Activity Reduction S. aureus (G+) 100 ppm 5 min [1] | Log Reduction S. enterica (G−) 200 ppm 0 min (Salmonella enterica (G−)) | Log Reduction S. enterica (G−) 200 ppm 10 min (Salmonella enterica (G−)) | Log Reduction S. aureus (G+) 200 ppm 0 min [1] | Log Reduction S. aureus (G+) 200 ppm 10 min [1] | Surface Tension 1000 ppm ([4]; 1000 ppm (Table 3)) | other results |
| --- | --- | --- | --- | --- | --- | --- | --- | --- | --- | --- | --- | --- | --- | --- | --- | --- | --- | --- | --- | --- |
| CCCCCCCCCCCC(=O)N[C@@H](CCCN=C(N)N)C(=O)OCC [C12 R E, Ethyl lauroyl arginate, reference compound] | 0.00 log | 6.42 log | 6.42 log | 0.00 log | 0.00 log | 0.00 log | 100.00% | 0.00 log | 6.53 log | 6.53 log | 0.00 log | 0.93 log | 1.14 log | 82.54% | – | – | – | – | – | pH stability [2]: decreases at higher pH; also recorded: unstable at pH 7 or above |
| CCCCCCCCCCCC(=O)NC(CO)CCCNC(=N)N (stereo not drawn) [C12 R O, lauryl argininol alcohol] | 0.00 log | 1.32 log | 2.36 log | 0.00 log | 0.00 log | 0.79 log | 66.53% | 0.00 log | 2.17 log | 6.53 log | 0.00 log | 0.76 log | 6.53 log | 0.00% | 0.00 log | 6.20 log | 0.00 log | 6.24 log | 23.75 mN/m | Log Reduction 200 ppm 0 min ([3]; 0 min): 1.85 log; Log Reduction 200 ppm 10 min ([3]; 10 min): 6.25 log; Surface Tension 1000 ppm ([4]; 1000 ppm (Table 2)): 23.75 mN/m |
| linear sophorolipid argininol amide [SLP R O] | – | – | – | – | – | – | – | – | – | – | – | – | – | – | 0.00 log | 0.00 log | 0.00 log | 2.23 log | 41.89 mN/m | – |
